The values that follow come from publication PMC8411522, “In vitro inhibitory effect of obtusofolin on the activity of CYP3A4, 2C9, and 2E1” (BMC Complementary Medicine and Therapies, 2021).

Data set [1] addresses T1, CYP3A4 (Homo sapiens, UniProt P08684).
T1 construct: Pooled HLMs were obtained from BD Bioscience (Woburn, USA); tissue BD Bioscience; host or cells: pooled human liver microsomes
Description: Time-dependent inhibition of CYP3A4 in pooled HLMs. Format: in vitro ADME. The method, then:
(§1) The time-dependent inhibition experiments were conducted at the incubation time of 0, 5, 10, 15, and 30 min at 37 °C with 20 μM obtusofolin. After the incubation, a total of 20 μL aliquot was transferred to another tube with the NADPH-generating system and probe substrates and incubation for a specific time. The reactions were terminated by the addition of acetonitrile and placed on ice for further analysis.
The time-dependent characteristic was estimated by the values of KI and Kinact obtained from further experiments. The incubation was performed with 0, 2, 5, 10, 20, and 50 μM obtusofolin and a higher concentration of substrates (approximately 4-fold to Km) for 0, 5, 10, 15, and 30 min. The incubation scheme was performed as described above. The fitting equation to obtain the value of KI and Kinact was: 1/Kobs=KI/Kinact∗1/I+1/Kinact
where Kobs is the pseudo-first-order rate constant of inactivation at inactivated concentration [I], Kinact is the maximum inactivation rate (a theoretical value that cannot be experimentally observed), and KI is the inactivated concentration when the rate of inactivation reaches half of Kinact.

On the set-up of data set [2]: method as in PMID 33119923. The settings on record: rats, 1.3 mg/kg obtusofolin; cited from earlier work.
For data set [3], the target named is T2, CYP2E1 (Homo sapiens, UniProt P05181).
T2 construct: Pooled HLMs were obtained from BD Bioscience (Woburn, USA); tissue BD Bioscience; host or cells: pooled human liver microsomes
The experiment in a line: Time-dependent inhibition of CYP2E1 in pooled HLMs. Format: in vitro ADME. Particulars: 20 μM obtusofolin, 5 to 30 min. The method, then: as §1

Data set [4] has as its target T2, CYP2E1. The experiment in a line: CYP2E1 inhibition in pooled human liver microsomes (chlorzoxazone 6-hydroxylation). The format is in vitro ADME. The method, then:
(§2) The investigation was conducted in pool human liver microsomes in vitro. Except for the HLMs treated with 100 μM obtusofolin, specific inhibitors, and negative control HLMs were also employed.
(§3) The incubation volume was 200 μL containing potassium phosphate buffer (pH 7.4), an NADPH-generating system composed of NADP^+, glucose-6-phosphate, glucose-6-phosphate dehydrogenase, and MgCl2, probe substrates, HLMs, and obtusofolin or positive inhibitors. The experiments for each CYP isoforms were performed in triplicate and the obtained results were represented as mean value ± SD.
(§4) The reactions were initiated by adding the NADPH-generating system after a 3-min preincubation at 37 °C. The reactions were terminated by adding 100 μL acetonitrile or 10% (v:v) trichloroacetic. The mixture was placed on ice and centrifuged at 12,000 rpm for 10 min. A total of 20 μL supernatant was obtained for the analysis of metabolites by HPLC.
(§5) Firstly, 100 μM obtusofolin was incubated with the above incubation system in HLMs to evaluate its effect on the activity of CYP450s. Then the dose-dependent experiments were performed to obtain corresponding parameters in the presence of 0, 2.5, 5, 10, 25, 50, and 100 μM obtusofolin. The concentrations of probe substrates were 20–100 μM testosterone for CYP3A4, 5–20 μM diclofenac for CYP2C9, and 25–250 μM chlorzoxazone for CYP2E1.
(§6) The enzyme kinetic parameters were obtained by the least-squares linear regression. The inhibition data were fitted with non-linear regression according to the following equation: V=VmaxS/Km1+I/Ki+Sfor competitive inhibitionCYP2C9 and 2E1; V=VmaxS/Km+S1+I/Kifor non−competitive inhibitionCYP3A4.
(§7) where I is the concentration of the compound, Ki is the inhibition constant, S is the concentration of the substrate and Km is the substrate concentration at half the maximum velocity (Vmax) of the reaction. The mechanism of the inhibition was inspected using the Lineweaver–Burk plots and the enzyme inhibition models. The data comparison was performed using the Student’s t-test and performed using IBM SPSS statistics 20 (SPSS Inc., Chicago, IL, USA).
For orientation: Microsomes from liver hold many membrane-bound enzymes, among them those of drug oxidation.

Data set [5] has as its target T3, CYP2C9 (Homo sapiens, UniProt P11712).
T3 construct: Pooled HLMs were obtained from BD Bioscience (Woburn, USA); tissue BD Bioscience; host or cells: pooled human liver microsomes
Description: CYP2C9 inhibition in pooled human liver microsomes (diclofenac 4′-hydroxylation). The format is in vitro ADME. The method, then: as §2, §3, §4, §5, §6, §7

For data set [6], the target named is T3, CYP2C9. The experiment in a line: Time-dependent inhibition of CYP2C9 in pooled HLMs. The format is in vitro ADME. Particulars: 20 μM obtusofolin, 5 to 30 min. The method, then:
as §1

Data set [7] concerns the target T1, CYP3A4. Description: CYP3A4 inhibition in pooled human liver microsomes (testosterone 6β-hydroxylation). Format: in vitro ADME. The method, then:
as §2, §3, §4, §5, §6, §7

The mark [8] stands for this setting: 100 μM obtusofolin, pooled HLMs, P < 0.05 vs negative control.
[9] abbreviates: Lineweaver–Burk plots, best fit.
The mark [10] stands for this setting: pooled HLMs, 0, 2.5, 5, 10, 25, 50, 100 μM obtusofolin, mean ± SD, triplicate.

T1 sequence (P08684 whole entry): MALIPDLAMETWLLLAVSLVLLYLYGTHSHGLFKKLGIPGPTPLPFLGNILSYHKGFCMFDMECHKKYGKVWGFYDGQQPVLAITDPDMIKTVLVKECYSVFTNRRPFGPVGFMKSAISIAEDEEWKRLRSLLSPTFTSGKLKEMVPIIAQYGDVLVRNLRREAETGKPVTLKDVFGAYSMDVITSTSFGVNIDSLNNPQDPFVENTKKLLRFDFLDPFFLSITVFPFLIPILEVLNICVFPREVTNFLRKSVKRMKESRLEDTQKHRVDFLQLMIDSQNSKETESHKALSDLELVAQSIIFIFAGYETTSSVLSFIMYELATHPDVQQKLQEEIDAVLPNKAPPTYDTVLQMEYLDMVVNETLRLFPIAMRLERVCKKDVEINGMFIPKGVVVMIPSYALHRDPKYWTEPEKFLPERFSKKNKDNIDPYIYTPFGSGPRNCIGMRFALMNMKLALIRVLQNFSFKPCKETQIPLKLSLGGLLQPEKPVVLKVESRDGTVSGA
T2 sequence (P05181 whole entry): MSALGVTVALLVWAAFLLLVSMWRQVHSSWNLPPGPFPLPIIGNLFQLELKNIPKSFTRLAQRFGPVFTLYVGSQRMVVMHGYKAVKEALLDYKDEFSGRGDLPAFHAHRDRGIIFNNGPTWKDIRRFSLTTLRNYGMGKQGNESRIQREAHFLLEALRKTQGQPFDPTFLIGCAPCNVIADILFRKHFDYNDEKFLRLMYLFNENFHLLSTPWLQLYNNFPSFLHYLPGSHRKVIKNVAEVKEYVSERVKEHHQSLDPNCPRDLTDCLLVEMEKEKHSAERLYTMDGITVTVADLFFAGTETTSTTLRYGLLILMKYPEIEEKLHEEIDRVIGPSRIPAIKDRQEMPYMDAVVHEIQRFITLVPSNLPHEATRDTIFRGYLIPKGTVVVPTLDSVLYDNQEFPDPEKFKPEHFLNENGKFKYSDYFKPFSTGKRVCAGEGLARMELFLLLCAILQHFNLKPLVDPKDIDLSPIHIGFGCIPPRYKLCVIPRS
T3 sequence (P11712 whole entry): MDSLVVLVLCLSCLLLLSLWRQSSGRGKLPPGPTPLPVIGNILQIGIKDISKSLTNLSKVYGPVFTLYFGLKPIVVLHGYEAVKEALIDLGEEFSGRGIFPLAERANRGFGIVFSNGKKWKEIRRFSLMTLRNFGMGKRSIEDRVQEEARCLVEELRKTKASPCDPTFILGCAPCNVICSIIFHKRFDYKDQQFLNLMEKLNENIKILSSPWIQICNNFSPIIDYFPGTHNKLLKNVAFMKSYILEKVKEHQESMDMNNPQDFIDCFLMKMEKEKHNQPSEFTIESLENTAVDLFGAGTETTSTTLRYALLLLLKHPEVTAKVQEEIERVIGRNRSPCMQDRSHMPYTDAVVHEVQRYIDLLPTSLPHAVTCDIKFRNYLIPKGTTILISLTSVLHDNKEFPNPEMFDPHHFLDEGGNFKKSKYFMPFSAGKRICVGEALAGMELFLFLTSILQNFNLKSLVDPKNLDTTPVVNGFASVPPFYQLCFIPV

For orientation: kinact means the maximal first-order rate at which the target is inactivated. Usually Ki stands for the dissociation constant of the complex between target and ligand, obtained from inhibition or displacement. One may read the IC50 as the point on the concentration scale where inhibition reaches its midpoint. Regarding `COc1c(O)c(C)cc2c1C(=O)c1c(O)cccc1C2=O` [obtusofolin], on CYP3A4 [1] (20 μM obtusofolin, 5 to 30 min), the “inhibitory effect on CYP3A4 versus incubation time” value is on record as “increased with the incubation time”. In addition, the kinact on CYP3A4 [1] (human, pooled human liver microsomes, 0, 2, 5, 10, 20, 50 μM obtusofolin, 0-30 min, substrate approx. 4-fold Km) was 0.000858 s⁻¹. Further, the “CYP3A4 inactivated per minute” value on CYP3A4 [1] (saturating concentration of obtusofolin) is reported as “approximately 5.15%”. For the same compound, in data set [2], the “maximum (plasma concentration)” value is recorded as 152.5 ± 62.3 ng/mL. For the same compound, at CYP2E1 [3], the “inhibitory effect on CYP2E1 versus incubation time” value was “not affected”. Moreover, the “activity of CYP2E1” value at CYP2E1 [4] (setting [8]) was “significantly suppressed”. The “inhibition model of CYP2E1” value against CYP2E1 [4] (setting [9]) is on record as “competitive”. The Ki on CYP2E1 [4] (competitive model, 25–250 μM chlorzoxazone, pooled HLMs) was 7.79 µM; at CYP2C9 [5] (competitive model, 5–20 μM diclofenac, pooled HLMs), 5.54 µM; at CYP3A4 [7] (non-competitive model, 20–100 μM testosterone, pooled HLMs), 8.82 µM. The IC50 against CYP2E1 [4] (setting [10]) turned out to be 15.5 ± 0.16 µM; against CYP2C9 [5] (setting [10]) it was 10.8 ± 0.13 µM; on CYP3A4 [7] (setting [10]), 17.1 ± 0.25 µM. Moreover, the “activity of CYP2C9” value at CYP2C9 [5] (setting [8]) is given as “significantly suppressed”. Besides, the “inhibition model of CYP2C9” value against CYP2C9 [5] (setting [9]) is reported as “competitive”. For the same compound, the “inhibitory effect on CYP2C9 versus incubation time” value on CYP2C9 [6] was “not affected”. Further, on CYP3A4 [7] (setting [8]), the “activity of CYP3A4” value is reported as “significantly suppressed”. In addition, on CYP3A4 [7] (setting [9]), the “inhibition model of CYP3A4” value was “non-competitive”.
